Laboratory results published in patent US20210121482A1, “WITHANOLIDES FOR THE TREATMENT OF CACHEXIA” (University of Louisville Research Foundation, Inc., priority 2019, published 2021).

Tests used:
[1] = tested on: A2780 ovarian cancer xenograft; conditions: mouse, in vivo
Experimental: Tumor-bearing groups received an IP injection of 1.0×10^6 low passage A2780 cells suspended in 100 μl sterile PBS.
Graphical Display and Statistical Analyses: The majority of the results were expressed as box-and-whisker plots with the box comprised of the first, second, and third quartiles, and the lower and upper whiskers corresponding to the minimum and maximum values, respectively, to display the entire range of data. A Kaplan-Meier curve was used for the survival analysis. Statistical analysis of the data was performed using one-way analysis of variance (ANOVA) followed by Tukey's Honestly Significant Difference Test (HSDT) post hoc analysis or the Mantel-Cox log-rank test to determine statistically significant differences between groups with GraphPad Prism 8.0.1 software for Mac (La Jolla, Calif., USA). A value of P<0.05 was considered statistically significant, unless otherwise specified.

[2] = tested on: Tn-I, AT2R and pro-inflammatory cytokines in the heart; assay: qPCR of heart; format: in vivo, Mus musculus; conditions: for relative transcript level of AT2R in the heart: compared to control
Experimental: (§1) Total RNA Extraction and qPCR: Isolation of total RNA from xenografted tumor samples was performed using an RNeasy® Mini Kit (Qiagen Catalog #74104) according to the manufacturer's instructions. Isolation of total RNA from skeletal muscle was performed using an RNeasy® Fibrous Tissue Mini Kit (Qiagen Catalog #74704) according to the manufacturer's instructions. First strand cDNA was synthesized using 1 μg of purified RNA and a commercially available kit (iScript™ cDNA synthesis, Bio-Rad Catalog #170-8891), Quantification of mRNA expression was performed similar to as previously described (Hindi and Kumar, 2016) using the SYBR Green dye method on a StepOnePlus™ system (Applied Biosystems) using gene-specific primers, as shown in Table 1.
(§2) Isolation and preparation of total RNA was performed as described in Example 1.

[3] = tested on: A2780 cells; assay: Free peritoneal tumor weight (Example 1); format: in vivo, mice; conditions: 2 and 6 mg/kg, vs vehicle treated group
Text: Free peritoneal tumors (visible tumors) not associated with an organ were collected and weighed to assess WFA effects. […] At the time of euthanization and tissue collection, tumors associated with the intestines were found most frequently in the vehicle treated group and were of the largest size.

[4] = tested on: TA, GA and QF muscles; assay: Skeletal muscle weight and myofiber CSA (Example 1); format: in vivo, mice
Text: Histology and Morphometric Analysis of Skeletal Muscle: The tibialis anterior (TA), gastrocnemius (GA) and quadriceps femoris (QF) of the mice were isolated, flash frozen in liquid nitrogen, mounted in OCT embedding medium, and then sectioned using a microtome cryostat. To assess tissue morphology, 10 μm thick transverse sections were cut from the mid-belly of the muscle and then subjected to hematoxylin and eosin (H&E) staining. Images of H&E-stained TA/GA/QF muscle sections were quantified using Image J and/or Fiji software to measure myofiber cross-sectional area (CSA). Myofiber CSA was calculated by analyzing ˜350-500 myofibers per muscle.

[5] = tested on: angiotensinogen (AGT); assay: qPCR of angiotensinogen in tumor tissues; format: in vivo, Homo sapiens
Experimental: as §1, §2

[6] = tested on: SKOV3; conditions: SKOV3 cells; cited from earlier work
[7] = tested on: gonadal fat pad; assay: Qualitative assessment of gonadal fat; format: in vivo, mice
Text: Ovarian cancer progression is often associated with the specific loss of the gonadal fat pad. Thus, an attempt was made to quantify the amount of adipose tissue present in the gonadal region at the time of tissue collection post-euthanization. The severe reduction in the gonadal fat pad rendered accurate measurement of gonadal adipose tissue improbable. Further, in some mice, there was a complete absence of gonadal fat.
1. When the ovaries were embedded in adipose tissue and not readily identifiable without dissection through the fat pad, the mouse was scored “Abundant”. All mice in the control group were deemed to have an abundant amount of gonadal fat, whereas the vehicle treated group had no gonadal fat present, consistent with published reports linking specific changes in the gonadal fat pad to the progression of ovarian cancer.
2. When adipose tissue was present but in such a scant quantity that we could not accurately quantify the mass, the amount of gonadal fat was marked as “Small Amount”.

[8] = tested on: Ang II; assay: Plasma Ang II ELISA; format: in vivo, mice; conditions: tumor-bearing
Experimental: Plasma Ang II levels were measured with an enzyme-linked immunosorbent assay (ELISA). Blood samples were collected in tubes containing ethylenediaminetetraacetic acid (EDTA) (25 mM), o-phenanthroline (0.44 mM), pepstatin A (0.12 mM), and p-hydroxymercuribenzoic acid (1 mM) and then centrifuged at 1200×g for 10 min. The plasma was collected and stored at −80° C. until further processing. Ang II levels were quantified by using a commercially available ELISA kit according to the manufacturer's instructions (Sigma-Aldrich Catalog #MAK190).

[9] = tested on: A2780; assay: Effect on ovarian cancer cell line A2780; format: cell-based; conditions: A2780 cells; through reactive oxygen species production and DNA damage
[10] = tested on: TA muscle myofibers (MyHC I, IIa, IIb); assay: Skeletal muscle fiber-type immunostaining; format: in vivo, mice
Experimental: Skeletal Muscle Fiber-type Immunostaining: To determine the composition of different types and gross composition of skeletal muscle fibers, 10 μm thick transverse sections were made from TA muscles, a hydrophobic boundary was drawn around the section, and then blocked with 5% goat serum and 2% bovine serum albumin (BSA) in PBS for 30 minutes. The sections were then incubated for one hour with monoclonal antibodies against myosin heavy chain (MyHC) isoforms type I, IIa, and IIb using clone BA-D5, […], and BF-F3, respectively (Developmental Studies Hybridoma Bank, Iowa City, Iowa, USA). The following secondary antibodies were then used for detection after 1-2 hours of incubation period: anti-Mouse IgG2b (γ2b) CF™ 350 antibody produced in goat, anti-Mouse IgG1 (yl) CF™ 568 antibody produced in goat, and Alexa Fluor-488 goat anti-mouse IgM. Fluorescence images were captured with a Nikon TiE 3000 inverted microscope, the single-color channels were merged, and percentage of each fiber-type in whole muscle section was recorded. Nonspecific background staining was performed using the above protocol but omitting the inclusion of the primary antibodies. Antibodies BA-D5, SC-71, and BF-F3 were deposited to the DSHB by Schiaffino, S. (DSHB Hybridoma Product BA-D5, SC-71, and BF-F3).

[11] = tested on: TNFα, IFNγ, IL-6, IL-8, IL-18 in tumor samples; assay: Human MAP multiplex assay of tumor samples; format: in vivo; conditions: vs vehicle treated group
Text: Samples were minced on ice with sterilized scissors.

[12] = 2 and 6 mg/kg, vs control group
[13] = 2 and 6 mg/kg, vs vehicle treated group

## CC1=C(CO)C(=O)O[C@@H]([C@@H](C)[C@H]2CC[C@H]3[C@@H]4C[C@H]5O[C@]56[C@@H](O)C=CC(=O)[C@]6(C)[C@H]4CC[C@]23C)C1 [WFA, (4β,5β,6β,22R)-4,27-Dihydroxy-5,6:22,26-diepoxyergosta-2,24-diene-1,26-dione]
[1]
  toxicity of high dose: turned out to be toxic
[2]; tumor-bearing WFA-treated groups
  relative transcript levels of TNFα, IL-6, MIP-2, IFNγ in the heart: significantly reduced in the WFA-treated groups
[2]; tumor-bearing WFA-treated groups, normalized to tumor-bearing vehicle
  transcript levels of IFNγ in the heart: significantly reduced in the WFA-treated groups
[2]; tumor-bearing, WFA 2 mg/kg
  relative transcript level of AT2R in the heart: 3.5±1.8 fold
[2]; tumor-bearing, WFA 4 mg/kg
  relative transcript level of AT2R in the heart: 5.2±3.2 fold
[2]; tumor-bearing, both doses, vs tumor-bearing vehicle
  reduction in relative transcript levels of Troponin-I (Tn-I) in heart: significantly blunted
[3]
  weight of free peritoneal tumors: significantly reduced the size of peritoneal tumors
[3]; at tissue collection
  tumors associated with the intestines: fewer and smaller tumors
[4]; 2 mg/kg, vs control group
  normalized wet weight of gastrocnemius (GA): significant reduction in normalized wet weight
[4]; 2 mg/kg, vs control group (p=0.09)
  myofibrillar CSA in GA muscle: restoration of myofibrillar CSA
[4]; 6 mg/kg, vs control group
  wet weight of quadriceps femoris (QF): significant reduction in wet weight
[4]; 6 mg/kg, vs control group (p=0.007)
  restoration of myofibrillar CSA in GA muscle: not those treated with 6 mg/kg of WFA
[4]; [12]
  average myofiber CSA (TA and QF): significant reduction in average myofiber CSA
  normalized wet weight of tibialis anterior (TA): significant reduction in normalized wet weight
[4]; [13]
  average myofiber CSA (TA, GA, QF): significantly greater than the vehicle treated group
  normalized muscle weights (TA, GA, QF): no difference between the vehicle and WFA treated groups
[5]; WFA 2 mg/kg
  relative transcript levels of angiotensinogen in tumor samples: 0.3676±0.252 fold change
[5]; WFA 4 mg/kg
  relative transcript levels of angiotensinogen in tumor samples: 0.0694±0.144 fold change
[6]
  cell cycle arrest and apoptosis: induces cell cycle arrest and the induction of apoptosis
[7]; WFA 2 mg/kg
  Gonadal Fat: Absent (mice scored/group): 0
  Gonadal Fat: Abundant (mice scored/group): 0
  Gonadal Fat: Present (mice scored/group): 4/5
  Gonadal Fat: Small Amount (mice scored/group): 1/5
[7]; WFA 6 mg/kg
  Gonadal Fat: Absent (mice scored/group): 0
  Gonadal Fat: Abundant (mice scored/group): 0
  Gonadal Fat: Present (mice scored/group): 1/4
  Gonadal Fat: Small Amount (mice scored/group): 3/4
[8]; WFA 2 mg/kg
  plasma Ang II levels: 2.15 ± 0.015 ng/mL
[8]; WFA 4 mg/kg
  plasma Ang II levels: 2.07 ± 0.08 ng/mL
[9]
  cell death: autophagic cell death
[10]; 2 and 6 mg/kg, vs control and vehicle treated groups
  proportion of Type IIb myofibers in TA muscle: significantly reduced in the WFA treated groups in a dose-dependent manner
[10]; 2 and 6 mg/kg, vs vehicle treated and control groups
  percentage of Type IIa myofibers in TA muscle: significant increase in Type IIa myofibers
[10]; all groups
  percentage of Type I myofibers in TA muscle: no significant differences were found
  percentage of Type IIx myofibers in TA muscle: no significant differences were elucidated upon post hoc analysis
[11]; 2 and 6 mg/kg
  cytokine levels of IL-18 in tumor (multiplex): significant reduction in the cytokine levels of IL-18
[11]; high dose (6 mg/kg)
  levels of TNFα, IFNγ, IL-6, IL-8 in tumor (multiplex): mixed result of up- and downregulation of proinflammatory cytokines
[11]; low dose (2 mg/kg)
  levels of TNFα, IFNγ, IL-6, IL-8 in tumor (multiplex): significantly reduced the expression of all proinflammatory cytokines tested
